One compound from patent US20150284362A1, “CARBAZOLE-CONTAINING AMIDES, CARBAMATES, AND UREAS AS CRYPTOCHROME MODULATORS” (ReSet Therapeutics, Inc., priority 2014, published 2015) can be followed below.

Test [1] addresses T1, FAD-binding domain of human CRY1 protein (hCRY1) (Homo sapiens, UniProt Q16526).
T1 construct: Myc-DDK (Myc + FLAG) (C); made in house
T1 sequence (Q16526 1-494): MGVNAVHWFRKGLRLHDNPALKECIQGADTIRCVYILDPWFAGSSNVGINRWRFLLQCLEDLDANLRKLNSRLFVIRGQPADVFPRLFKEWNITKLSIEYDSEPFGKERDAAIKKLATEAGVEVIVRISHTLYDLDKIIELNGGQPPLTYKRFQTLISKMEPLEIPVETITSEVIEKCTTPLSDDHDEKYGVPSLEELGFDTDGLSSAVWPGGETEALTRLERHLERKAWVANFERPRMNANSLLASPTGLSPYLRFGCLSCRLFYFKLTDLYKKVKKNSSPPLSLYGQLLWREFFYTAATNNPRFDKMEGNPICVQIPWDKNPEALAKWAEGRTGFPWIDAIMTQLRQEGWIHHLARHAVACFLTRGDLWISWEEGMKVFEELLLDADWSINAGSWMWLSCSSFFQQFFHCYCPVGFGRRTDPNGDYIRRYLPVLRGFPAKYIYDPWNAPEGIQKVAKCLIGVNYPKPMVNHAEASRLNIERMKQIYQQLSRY
Nature of the test: Thermal shift binding assay (differential scanning fluorimetry). Particulars: purified FADBD 0.5 μg per well, 5% DMSO. As for the experimental part:
Binding of compounds to the isolated FAD-binding domain of human CRY1 protein (hCRY1) was determined using a differential scanning fluorimetry (‘thermal shift’) assay (Pantoliano et al. (2001) J Biomol Screening 6, 429; Niesen et al. (2007) Nature Protocols 2, 2212). The FAD-binding domain of hCRY1 (amino acid residues 1-494) with a C-terminal Myc-DDK tag (FADBD), was produced by transient transfection of HEK293T cells (Catalog # CRL-3216, American Type Culture Collection) and purified by anti-FLAG affinity chromatography (Catalog # A2220, Sigma-Aldrich). FADBD (0.5 μg per well) was incubated with dilutions of compounds in DMSO (5% DMSO final concentration in reaction) in 17.5 μl Tris-buffered saline (TBS) for 10 minutes on ice, then 2.5 μl of 8× Sypro-Orange Dye (Life Technologies) was added to each well. Triplicate wells were assayed for each compound concentration. The melting temperatures were measured in an ABI7500 quantitative PCR instrument using the melt curve mode with a thermal profile of 2 minutes at 25° C., followed by a ramp rate of 1° C./minute up to 99° C. The melting temperature for each well was determined from the first derivative of the melt curve. The change in melting temperature (ΔTm) was obtained by subtraction of the melting temperature of the FADBD in 5% DMSO alone.

Another test concerns Dbp mRNA in whole blood. In words: Dbp mRNA in whole blood of db/db mice after three daily doses. Format: in vivo, mouse. Particulars: 100 mg/kg PO once daily for three days at ZT0, blood at ZT7.5. As for the experimental part: For whole blood RNA studies, male db/db mice (9 weeks of age, The Jackson Laboratory, Bar Harbor, Me.) were used for the experiment with n=8 mice for each experimental group. […] On the final day at ZT7.5 (2:30 pm), animals were euthanized using CO2 asphyxiation, and the blood collected from the heart via cardiac puncture. The blood was placed in RNALater solution to 1.5 ml total volume. Total RNA was prepared using an Ambion Mouse RiboPure Blood RNA Isolation Kit AM1951 as follows. Samples were centrifuged for 3 minutes, discarding the supernatant. Two ml of lysis solution was added and vortexed, transferred to a 15 ml tube followed by the addition of microliters 3M Sodium Acetate. […]
RediPlate 96 RiboGreen RNA Quantification Kit (Invitrogen) RediPlate standard curve was prepared by transferring 20 μl reconstituted RNA standard to a RediPlate well reconstituted in 180 μl RediPlate TE buffer. […] After transferring 5 μl to RediPlate well reconstituted in 195 μl TE buffer and incubating 10 min. at RT, Fluorescence Intensity of wells with standards and samples were read in a Tecan M200 with Excitation set at 480 nm and Emission set at 520 nm with the gain set to ˜70%. […] A standard curve was generated in GraphPad Prism and sample readings (unknowns) are interpolated via linear regression analysis, and the RNA sample concentrations were calculated. […]

Molecules are shown by their SMILES.

For the compound `O=C1NCCN1CC(O)Cn1c2ccc(F)cc2c2cc(F)ccc21` (centres unmarked) [Compound 72, 1-(3-(3,6-difluoro-9H-carbazol-9-yl)-2-hydroxypropyl)imidazolidin-2-one], the “change in melting temperature (ΔTm) of hCRY1 FADBD” value in test [1] is recorded as “dose-dependent increase in ΔTm”. For the same compound, the “Dbp gene expression in whole blood” value in the test with Dbp mRNA in whole blood is reported as “statistically significant suppression”.
